Ends that are not written are not given here. * marks the point of attachment. Octanoyl = CCCCCCCC(=O)*
Columns and labels:
brain ghrelin receptor = test: Effect of GH on central ghrelin receptor expression and parasympathetic neuronal activity; format: in vivo; conditions: no data given
[1] = system: 24-month-old (aged) rats with LPS injection; test: LPS-induced endotoxemia in aged rats treated with GH with or without ghrelin; format: in vivo, rat; conditions: 4 h after LPS 15 mg/kg BW, ghrelin 20 nmol/kg BW and/or GH 25 μg/kg BW bolus 30 min prior to LPS
Method: To determine whether GH sensitizes Ghrelin's anti-inflammatory effects, GH was administered (25 μg/kg BW, a bolus at 30 min prior to LPS injection) with or without ghrelin (20 nmol/kg BW, a bolus at 30 min prior to LPS injection) in 24-month-old (aged) rats with LPS injection (15 mg/kg BW). […] Similarly, organ injury indicators such as AST and ALT were attenuated only following co-administration of ghrelin and GH after LPS injection in aged animals (FIG. 9C-D).

[2] = system: rats exposed to whole body irradiation followed by CLP; test: Radiation combined injury (RCI): 5-Gy whole body irradiation followed by CLP; format: in vivo, rat
Method: Rats were exposed to 5-Gy whole body irradiation followed by cecal ligation and puncture (CLP) 48 h thereafter. Human ghrelin (30 nmol) or vehicle (saline) was infused for 68 h after radiation exposure. At 20 h post-CLP, circulating tissue injury markers were measured. A 10-day survival study was also performed.

[3] = system: male 3-month-old (young) rats subjected to sepsis by CLP; conditions: sepsis in young animals; Wu et al., 2004; cited from earlier work
[4] = system: young rats with LPS injection; test: ICV administration of ghrelin prior to IV LPS injection (endotoxemia); conditions: ghrelin 3 nmol/kg BW ICV 30 min prior to IV LPS 15 mg/kg BW; 1 h after LPS
[5] = system: male 3-month-old (young) rats subjected to sepsis by CLP; format: in vivo
Method: Protective effects of ghrelin in young septic animals: This study was designed to determine whether ghrelin by itself can attenuate sepsis-induced inflammatory responses, cardiovascular responses, tissue injury, and mortality in young animals. To study this, male 3-month-old (young) rats were subjected to sepsis by CLP. At 5 h after CLP, a bolus IV injection of ghrelin (6 nmol/kg BW) was followed by a continuous infusion of ghrelin (40 nmol/kg BW) via a primed 200-μl Alzet mini-pump for 15 h. 20 h after CLP (i.e., severe sepsis), plasma levels of TNF-α, IL-6, and HMGB-1 were determined. Cardiac output (CO), stoke volume (SV), total peripheral resistance (TPR), and organ blood flow (BF) were measured using radioactive microspheres. Moreover, tissue injury indicators such as plasma levels of lactate and creatinine, as well as lung water content (edema) were determined. In additional groups of animals, the necrotic cecum was excised at 20 h after CLP, and a 10-day survival was recorded. […] Thus, ghrelin may provide a novel approach for anti-sepsis therapy in the young population. […] This also confirms that ghrelin can cross the blood-brain barrier to produce its beneficial effect centrally, thus reducing proinflammatory cytokines in sepsis. […] Plasma levels of TNF-α were measured at 1 h after LPS injection. […] However, due to the presence of central ghrelin hyporesponsiveness in aged animals, it is most likely that treatment with ghrelin alone will not produce desirable beneficial results in the geriatric population.

[6] = plasma, 20 h post-CLP, human ghrelin 30 nmol infused for 68 h after radiation, Mean ± SE, n = 4-6/group
[7] = 20 h after CLP, ghrelin 6 nmol/kg BW IV bolus at 5 h + 40 nmol/kg BW infusion for 15 h
[8] = 20 h after CLP, radioactive microspheres

In the case of “GH: Growth hormone; a ghrelin-sensitizing agent; preferred human forms SEQ ID NO:2-4”, the “brain ghrelin receptor expression” value (brain ghrelin receptor; aged animals (heading of b67)) is reported as “increases”, the parasympathetic neuronal activity (brain ghrelin receptor) is reported as “increases” and the “plasma levels of IL-6” value [1] is reported as “neither ghrelin nor GH alone significantly decreased”. For the same substance, the “plasma levels of TNF-α” value [1] was “neither ghrelin nor GH alone significantly decreased”.
In the case of “Human ghrelin: Human ghrelin; preferably GSSFLSPEHQRVQQRKESKKPPAKLQPR, S at position 3 n-octanoylated serine (SEQ ID NO:1) (GSS(Octanoyl)FLSPEHQRVQQRKESKKPPAKLQPR; listed as Homo sapiens)”, the survival ([2]; 10-day survival after RCI, vehicle 38%) is reported as 69% and the “decrease of the elevated injury markers in plasma” value ([2]; vs. RCI + vehicle, 20 h post-CLP) is reported as 41-59%.
In the case of “ghrelin: Endogenous ligand for the growth hormone secretagogue receptor; species form used in the LPS and CLP studies not stated (GSSFLSPEHQRVQQRKESKKPPAKLQPR; ends and bridges not checked; UniProt Q9UBU3 24-51, looked up)”, the “circulating proinflammatory cytokines such as TNF-α and IL-6” value [3] is listed as “significantly decreases”, the “reduction of serum levels of TNF-α” value [4] is listed as 65% and the “Gut MPO” value ([2]; 20 h post-CLP, human ghrelin 30 nmol infused for 68 h after radiation, Mean ± SE, n = 4-6/group) is listed as 14.0 ± 1.1 μU/mg. For the same substance, the ALT [2, 6] was 42.3 ± 5.4 IU/L, the AST [2, 6] was 70.7 ± 70.3 IU/L and the Creatinine [2, 6] was 1.60 ± 0.20 mg/dL. It also gave an IL-6 [2, 6] of 817 ± 88 pg/mL, an LDH [2, 6] of 1098 ± 88 U/L and a Lactate [2, 6] of 19.4 ± 0.8 mg/dL. The TNF-α [2, 6] was 41.8 ± 8.5 pg/mL, the “survival of septic animals” value ([5]; 10-day survival, necrotic cecum excised at 20 h after CLP, control 35%, n=20/group) was 65% and the “lung edema (lung water content)” value ([5]; 20 h after CLP) was “decreased”. For the same substance, the plasma creatinine ([5]; 20 h after CLP) was “decreased”, the plasma lactate ([5]; 20 h after CLP) was “decreased” and the “cytokine levels in peritoneal fluid” value ([5]; 20 h after CLP, data not shown) was “markedly reduced”. For the same substance, the “plasma levels of HMGB-1” value [5, 7] was “significantly reduced”, the “plasma levels of IL-6” value [5, 7] was “significantly reduced” and the “plasma levels of TNF-α” value [5, 7] was “significantly reduced”. The “cardiac output (CO)” value [5, 8] was “increased”, the “organ blood flow in the gut” value [5, 8] was “increased” and the “organ blood flow in the kidneys” value [5, 8] was “increased”. The “organ blood flow in the liver” value [5, 8] was “increased”, the “stroke volume (SV)” value [5, 8] was “increased” and the “total peripheral resistance (TPR)” value [5, 8] was “reduced”. The brain ghrelin levels ([5]; rat, in vivo, iv) was “restored the reduced brain ghrelin levels”, the “plasma levels of IL-6” value [1] was “neither ghrelin nor GH alone significantly decreased” and the “plasma levels of TNF-α” value [1] was “neither ghrelin nor GH alone significantly decreased”.

Reference: patent US8324151B2, “Treatment of sepsis and septic shock using ghrelin and growth hormone” (The Feinstein Institute for Medical Research, priority 2007, dated 2012)
